# Test results reported in patent US20110173718A1, “HERBICIDE TOLERANT PLANTS” (SYNGENTA CROP PROTECTION, INC., priority 2008, published 2011).
# Key:
# weeds = test: Glasshouse weed control by HST/HPPD (mesotrione) mixtures, post-emergence; format: in vivo; conditions: post-emergence; for % damage, 1 g ai ha^−1 mesotrione / % damage, no-mesotrione: 14 DAT; for colby: difference to Colby expectation
# Description: Weed seeds are planted out in trays containing suitable soil (for example 50% peat, 50% John Innes soil no 3) and grown in the glass house conditions under 24-27° C. day; 18-21° C. night and approximately a 14 h (or longer in UK summer) photoperiod. Humidity is ˜65% and light levels up to 2000 μmol/m^2 at bench level. Trays are sprayed with test chemicals dissolved in water with 0.2-0.25% X-77 surfactant and sprayed from a boom on a suitable track sprayer moving at about 2 mph in a suitable track sprayer (for example a DeVries spray chamber with the nozzle about 2 inches from the plant tops). Spray volume is suitably 500-1000 l/ha. Sprays are carried out both pre-emergence and over small plants at about 7-12 d post-emergence
# Plants are assessed 14 DAT and herbicidal damage is scored on a scale from 0 to 100%. The HST inhibitor compound 2.30 (designated compound A in table 16 and 17), haloxydine (compound 1.1) and compound 2.13 (designated compound AE in tables 16 and 17) are sprayed at rates between 0 and 500 g/ha.
# [1] = system: tobacco plants expressing Pseudomonas fluorescens HPPD; test: Glasshouse spray test, Pseudomonas HPPD transgenic tobacco; format: in vivo; conditions: for % damage observed 16 DAT: Pseudomonas HPPD T1
# Source text: Tobacco plants expressing the wild-type HPPD gene of Pseudomonas fluorescens strain 87-79 under operable control of the double enhanced 35S CMV promoter region, Nos3′ terminator and TMV translational enhancer were provided as detailed in Example 4 of WO0246387.
# Seed of wild-type tobacco plants, C2 tobacco plants and of the T1 progeny of a further Arabidopsis-HST expressing tobacco line, D2 were planted out in 3 inch pots, grown on, sprayed with compounds 1.1, 2.30 and 3.6 at the rates shown in table 5. Percent damage scores were assessed at 7 DAT. Aside from the presumptive non-transgenic segregants the D2 line containing the Arabidopis HST expression construct offered the highest level of tolerance to the two HST herbicides with the Psuedomonas HPPD, C2 line, offering only marginal tolerance under the conditions of this test.
# Transgenic lines of tobacco, soyabean and corn etc. can be engineered to express various heterologous HPPDs derived from, for example Avena (SEQ ID #26), Wheat (SEQ ID #27), Pseudomonas fluorescens (SEQ ID # 25) and Shewanella colwelliana (SEQ ID #28) as, for example, described in WO 02/46387.
# Single copy events amongst the T1 plant lines are identified by their 3:1 segregation ratio (wrt kanamycin and or herbicide) and by quantitative RT-PCR. Seed from the thus selected T1 tobacco (var Samsun) lines are sown in 3 inch diameter pots containing 50% peat, 50% John Innes soil no 3. After growth to the 3 leaf stage, plants are sprayed, as described above, in order to test for herbicide tolerance relative to like-treated non-transgenic tobacco plants.
# Control tobacco plants and transgenic T1 plants expressing either the Pseudomonas or the wheat HPPD gene are sprayed at 37, 111, 333 and 1000 g/ha rates of HST inhibitors and, for example, compound 2.3.
# Plants are assessed and scored for % damage at 16 DAT.
# [2] = ALOMY, 16 g/ha + 1 g ai/ha mesotrione
# [3] = ALOMY, 31 g/ha + 1 g ai/ha mesotrione
# [4] = ALOMY, 63 g/ha + 1 g ai/ha mesotrione
# [5] = ALOMY, 125 g/ha + 1 g ai/ha mesotrione
# [6] = ALOMY, 250 g/ha + 1 g ai/ha mesotrione
# [7] = ALOMY, 500 g/ha + 1 g ai/ha mesotrione
# [8] = ECHCG, 16 g/ha + 1 g ai/ha mesotrione
# [9] = ECHCG, 31 g/ha + 1 g ai/ha mesotrione
# [10] = ECHCG, 63 g/ha + 1 g ai/ha mesotrione
# [11] = ECHCG, 125 g/ha + 1 g ai/ha mesotrione
# [12] = ECHCG, 250 g/ha + 1 g ai/ha mesotrione
# [13] = ECHCG, 500 g/ha + 1 g ai/ha mesotrione
# [14] = SETFA, 16 g/ha + 1 g ai/ha mesotrione
# [15] = SETFA, 31 g/ha + 1 g ai/ha mesotrione
# [16] = SETFA, 63 g/ha + 1 g ai/ha mesotrione
# [17] = SETFA, 125 g/ha + 1 g ai/ha mesotrione
# [18] = SETFA, 250 g/ha + 1 g ai/ha mesotrione
# [19] = SETFA, 500 g/ha + 1 g ai/ha mesotrione
smiles,measurement,setting,value
O=c1c(-c2c(F)ccc(F)c2Cl)c(O)c2cccnc2n1CC(F)F [Compound 2.13],"% damage, 1 g ai ha^−1 mesotrione",weeds; [2],0%
same,colby,weeds; [2],0
same,"% damage, no-mesotrione","weeds; ALOMY, 16 g/ha",0%
same,"% damage, 1 g ai ha^−1 mesotrione",weeds; [3],2%
same,colby,weeds; [3],2
same,"% damage, no-mesotrione","weeds; ALOMY, 31 g/ha",0%
same,"% damage, 1 g ai ha^−1 mesotrione",weeds; [4],3%
same,colby,weeds; [4],3
same,"% damage, no-mesotrione","weeds; ALOMY, 63 g/ha",0%
same,"% damage, 1 g ai ha^−1 mesotrione",weeds; [5],0%
same,colby,weeds; [5],0
same,"% damage, no-mesotrione","weeds; ALOMY, 125 g/ha",0%
same,"% damage, 1 g ai ha^−1 mesotrione",weeds; [6],3%
same,colby,weeds; [6],2
same,"% damage, no-mesotrione","weeds; ALOMY, 250 g/ha",2%
same,"% damage, 1 g ai ha^−1 mesotrione",weeds; [7],5%
same,colby,weeds; [7],−2
same,"% damage, no-mesotrione","weeds; ALOMY, 500 g/ha",7%
same,"% damage, 1 g ai ha^−1 mesotrione",weeds; [8],5%
same,colby,weeds; [8],−3
same,"% damage, no-mesotrione","weeds; ECHCG, 16 g/ha",0%
same,"% damage, 1 g ai ha^−1 mesotrione",weeds; [9],5%
same,colby,weeds; [9],−3
same,"% damage, no-mesotrione","weeds; ECHCG, 31 g/ha",0%
same,"% damage, 1 g ai ha^−1 mesotrione",weeds; [10],8%
same,colby,weeds; [10],0
same,"% damage, no-mesotrione","weeds; ECHCG, 63 g/ha",0%
same,"% damage, 1 g ai ha^−1 mesotrione",weeds; [11],15%
same,colby,weeds; [11],7
same,"% damage, no-mesotrione","weeds; ECHCG, 125 g/ha",0%
same,"% damage, 1 g ai ha^−1 mesotrione",weeds; [12],22%
same,colby,weeds; [12],13
same,"% damage, no-mesotrione","weeds; ECHCG, 250 g/ha",0%
same,"% damage, 1 g ai ha^−1 mesotrione",weeds; [13],20%
same,colby,weeds; [13],12
same,"% damage, no-mesotrione","weeds; ECHCG, 500 g/ha",0%
same,"% damage, 1 g ai ha^−1 mesotrione",weeds; [14],0%
same,colby,weeds; [14],0
same,"% damage, no-mesotrione","weeds; SETFA, 16 g/ha",0%
same,"% damage, 1 g ai ha^−1 mesotrione",weeds; [15],0%
same,colby,weeds; [15],0
same,"% damage, no-mesotrione","weeds; SETFA, 31 g/ha",0%
same,"% damage, 1 g ai ha^−1 mesotrione",weeds; [16],0%
same,colby,weeds; [16],0
same,"% damage, no-mesotrione","weeds; SETFA, 63 g/ha",0%
same,"% damage, 1 g ai ha^−1 mesotrione",weeds; [17],0%
same,colby,weeds; [17],0
same,"% damage, no-mesotrione","weeds; SETFA, 125 g/ha",0%
same,"% damage, 1 g ai ha^−1 mesotrione",weeds; [18],0%
same,colby,weeds; [18],0
same,"% damage, no-mesotrione","weeds; SETFA, 250 g/ha",0%
same,"% damage, 1 g ai ha^−1 mesotrione",weeds; [19],0%
same,colby,weeds; [19],0
same,"% damage, no-mesotrione","weeds; SETFA, 500 g/ha",0%
"Oc1c(Cl)c(F)nc(F)c1Cl [Compound 1.1, haloxydine]",% damage at 7 DAT,"[1]; 25 gai/ha, C2 line (Pseudomonas HPPD, T2), individual plants",75%
O=c1c(-c2c(F)ccc(F)c2Cl)c(O)c2nccnc2n1CC(F)F [Compound 2.3],% damage observed 16 DAT,[1]; 37 g/ha,0%
same,% damage observed 16 DAT,[1]; 111 g/ha,3%
same,% damage observed 16 DAT,[1]; 333 g/ha,6%
same,% damage observed 16 DAT,[1]; 1000 g/ha,10%
